# Test system: LXRα and/or LXRβ
# Test: LXR/LXRE co-transfection assay (luciferase reporter, CV-1 cells)
# Type: cell-based, human
# Details: IC50 or EC50 for LXR (LXRα and/or LXRβ, not distinguished), tested as described in Example 109, CV-1 cells
# Outline: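 Transient co-transfection of CV-1 cells with full-length human LXRα or LXRβ plus RXRα expression plasmids and an LXREx1-Tk-luciferase reporter; compounds (10 μM screen, ≤1% DMSO) incubated 20 h at 37 °C. Luminescence read after lysis; EC50/IC50 from 8-point half-log curves, efficacy relative to a high control or DMSO.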
row,EC50 [µM],SMILES
1,1 to 10,"CC(C)(O)c1cc(-c2ccc(-c3ccc(F)c(C(F)(F)F)c3)cc2)n(-c2ccccc2Cl)n1 [Example 1299, 2-{1-(2-chlorophenyl)-5-[4′-fluoro-3′-(trifluoromethyl)biphenyl-4-yl]-1H-pyrazol-3-yl}propan-2-ol]"
2,< 1,"CCc1ccccc1-n1nc(C(C)(C)O)c(Cl)c1-c1ccc(-c2cccc(S(C)(=O)=O)c2)s1 [Example 1373, 2-[4-chloro-1-(2-ethylphenyl)-5-{5-[3-(methylsulfonyl)phenyl]-2-thienyl}-1H-pyrazol-3-yl]propan-2-ol]"
3,1 to 10,"CN(C)CCNC(=O)c1cccc(-c2ccc(-c3cc(C(C)(C)O)nn3-c3ccccc3Cl)cc2)c1 [Example 1293, 4′-[1-(2-chlorophenyl)-3-(1-hydroxy-methylethyl)-1H-pyrazol-5-yl]-N-[2-(dimethylamino)ethyl]biphenyl-3-carboxamide]"
4,< 1,"Cc1cc(-c2cccc(S(C)(=O)=O)c2)ccc1-n1nc(C(C)(C)O)c(Cl)c1-c1c(F)cccc1Cl [Example 149, 2-(4-chloro-5-(2-chloro-6-fluorophenyl)-1-(3-methyl-3′-(methylsulfonyl)biphenyl-4-yl)-1H-pyrazol-3-yl)propan-2-ol]"
5,1 to 10,"CS(=O)(=O)c1cccc(-c2ccc(-c3cc(CNc4cc[nH]c(=S)n4)nn3-c3ccccc3Cl)s2)c1 [Example 545, 4-({[1-(2-chlorophenyl)-5-{5-[3-(methylsulfonyl)phenyl]-2-thienyl}-1H-pyrazol-3-yl]methyl}amino)pyrimidine-2(1H)-thione]"
6,1 to 10,"CC(C)(O)c1cc(-c2ccc(-c3cccc(S(C)(=O)=O)c3)cc2)n(-c2cnccc2C(F)(F)F)n1 [Example 108, 2-(5-(3′-(methylsulfonyl)biphenyl-4-yl)-1-(4-(trifluoromethyl)pyridin-3-yl)-1H-pyrazol-3-yl)propan-2-ol]"
7,1 to 10,"CC(C)(O)c1cc(-c2ccc(-c3cccc(S(C)(=O)=O)c3)s2)n(-c2ccncc2)n1 [Example 1343, 2-(5-{5-[3-(methylsulfonyl)phenyl]-2-thienyl}-1-pyridin-4-yl-1H-pyrazol-3-yl)propan-2-ol]"
8,1 to 10,"CC(C)(O)c1cc(-c2ccc(-c3cccc(S(C)(=O)=O)c3)s2)n(-c2cnccc2C(F)(F)F)n1 [Example 1351, 2-(5-{5-[3-(methylsulfonyl)phenyl]-2-thienyl}-1-[4-(trifluoromethyl)pyridin-3-yl]-1H-pyrazol-3-yl)propan-2-ol]"
9,< 1,"CS(=O)(=O)c1cccc(-c2ccc(-c3cc(C(=O)N4CCCC4)nn3-c3ccccc3Cl)s2)c1 [Example 1129, 1-(2-chlorophenyl)-5-{5-[3-(methylsulfonyl)phenyl]-2-thienyl}-3-(pyrrolidin-1-ylcarbonyl)-1H-pyrazole]"
10,< 1,"COC(=O)c1cccc(-n2nc(C(F)(F)F)cc2-c2ccc(-c3cccc(S(C)(=O)=O)c3)s2)c1 [Example 1186, methyl 3-[5-{5-[3-(methylsulfonyl)phenyl]-2-thienyl}-3-(trifluoromethyl)-1H-pyrazol-1-yl]benzoate]"
11,< 1,"CCC(O)c1cc(-c2ccc(-c3cccc(S(C)(=O)=O)c3)s2)n(-c2ccccc2Cl)n1 (stereo not drawn) [Example 1175, 1-[1-(2-chlorophenyl)-5-{5-[3-(methylsulfonyl)phenyl]-2-thienyl}-1H-pyrazol-3-yl]propan-1-ol]"
12,< 1,"CC(C)(C#N)c1cc(-c2ccc(-c3cccc(S(C)(=O)=O)c3)s2)n(-c2ccccc2Cl)n1 [Example 1134, 2-[1-(2-chlorophenyl)-5-{5-[3-(methylsulfonyl)phenyl]-2-thienyl}-1H-pyrazol-3-yl]-2-methylpropanenitrile]"
13,1 to 10,"CC(C)(O)c1cc(-c2cccc(Cl)c2Cl)n(-c2ccc(-c3cccc(S(C)(=O)=O)c3)cc2)n1 [Example 106, 2-(5-(2,3-dichlorophenyl)-1-(3′-(methylsulfonyl)biphenyl-4-yl)-1H-pyrazol-3-yl)propan-2-ol]"
14,< 1,"CC(C)(O)c1nn(-c2cnccc2C(F)(F)F)c(-c2ccc(-c3cccc(S(C)(=O)=O)c3)s2)c1Br [Example 1369, 2-(4-bromo-5-{5-[3-(methylsulfonyl)phenyl]-2-thienyl}-1-[4-(trifluoromethyl)pyridin-3-yl]-1H-pyrazol-3-yl)propan-2-ol]"
15,< 1,"COC(=O)c1cc(-c2ccc(-c3cccc(S(C)(=O)=O)c3)s2)n(-c2c(Cl)cccc2Cl)n1 [Example 1238, methyl 1-(2,6-dichlorophenyl)-5-{5-[3-(methylsulfonyl)phenyl]-2-thienyl}-1H-pyrazole-3-carboxylate]"
16,< 1,"C/C(=N\O)c1cc(-c2ccc(-c3cccc(S(C)(=O)=O)c3)s2)n(-c2ccccc2Cl)n1 [Example 1176, (1E)-1-[1-(2-chlorophenyl)-5-{5-[3-(methylsulfonyl)phenyl]-2-thienyl}-1H-pyrazol-3-yl]ethanone oxime]"

row,EC50 [µM],SMILES
1,< 1,"CN(C)CCCN(C)C(=O)c1cc(-c2ccc(-c3cccc(S(C)(=O)=O)c3)s2)n(-c2ccccc2Cl)n1 [Example 588, 1-(2-chlorophenyl)-N-[3-(dimethylamino)propyl]-N-methyl-5-{5-[3-(methylsulfonyl)phenyl]-2-thienyl}-1H-pyrazole-3-carboxamide]"
2,< 1,"CC(=O)c1cc(-c2ccc(-c3cccc(S(C)(=O)=O)c3)s2)n(-c2ccccc2Cl)n1 [Example 1150, 1-[1-(2-chlorophenyl)-5-{5-[3-(methylsulfonyl)phenyl]-2-thienyl}-1H-pyrazol-3-yl]ethanone]"
3,< 1,"COC(=O)c1cccc(-n2nc(C(=O)OC)cc2-c2ccc(-c3cccc(S(C)(=O)=O)c3)s2)c1 [Example 1220, methyl 1-{3-[(methyloxy)carbonyl]phenyl}-5-{5-[3-(methylsulfonyl)phenyl]-2-thienyl}-1H-pyrazole-3-carboxylate]"
4,1 to 10,"CC(C)(O)c1cc(-c2cc(C(F)(F)F)nn2-c2ccccc2Cl)ccc1-c1cccc(S(C)(=O)=O)c1 [Example 1207, 2-{4-[1-(2-chlorophenyl)-3-(trifluoromethyl)-1H-pyrazol-5-yl]-3′-(methylsulfonyl)biphenyl-2-yl}propan-2-ol]"
5,1 to 10,"CS(=O)(=O)c1cccc(-c2ccc(-c3cc(CN4CCCC4)nn3-c3ccccc3Cl)s2)c1 [Example 456, 1-(2-chlorophenyl)-5-{5-[3-(methylsulfonyl)phenyl]-2-thienyl}-3-(pyrrolidin-1-ylmethyl)-1H-pyrazole]"
6,< 1,"CN(Cc1ccncc1)Cc1cc(-c2ccc(-c3cccc(S(C)(=O)=O)c3)s2)n(-c2ccccc2Cl)n1 [Example 547, 1-[1-(2-chlorophenyl)-5-{5-[3-(methylsulfonyl)phenyl]-2-thienyl}-1H-pyrazol-3-yl]-N-methyl-N-(pyridin-4-ylmethyl)methanamine]"
7,< 1,"CC(C)(O)c1cc(-c2cccc(F)c2F)n(-c2ccc(-c3cccc(S(C)(=O)=O)c3)cc2Cl)n1 [Example 131, 2-(1-(3-chloro-3′-(methylsulfonyl)biphenyl-4-yl)-5-(2,3-difluorophenyl)-1H-pyrazol-3-yl)propan-2-ol]"
8,1 to 10,"CC(C)(O)c1cc(-c2ccc(-c3cccc(S(C)(=O)=O)c3)cn2)n(-c2ccccc2Cl)n1 [Example 119, 2-(1-(2-chlorophenyl)-5-(5-(3-(methylsulfonyl)phenyl)pyridin-2-yl)-1H-pyrazol-3-yl)propan-2-ol]"
9,< 1,"CS(=O)(=O)c1cccc(-c2ccc(-c3cc(C(=S)NCC(F)(F)F)nn3-c3ccccc3Cl)s2)c1 [Example 1277, 1-(2-chlorophenyl)-5-{5-[3-(methylsulfonyl)phenyl]-2-thienyl}-N-(2,2,2-trifluoromethyl)-1H-pyrazole-3-carbothioamide]"
10,< 1,"CC(C)(O)c1cc(-c2ccc(-c3cccc(S(C)(=O)=O)c3)cc2Cl)n(Cc2cccc(Cl)c2Cl)n1 [Example 1402, 2-(5-(3-chloro-3′-(methylsulfonyl)biphenyl-4-yl)-1-(2,3-dichlorobenzyl)-1H-pyrazol-3-yl)propan-2-ol]"
11,< 1,"Cc1cc(-c2cccc(S(C)(=O)=O)c2)ccc1-n1nc(C(C)(C)O)c(Cl)c1-c1c(Cl)cccc1Cl [Example 1424, 2-(4-chloro-5-(2,6-dichlorophenyl)-1-(3-methyl-3′-(methylsulfonyl)biphenyl-4-yl)-1H-pyrazol-3-yl)propan-2-ol]"
12,< 1,"CS(=O)(=O)c1cccc(-c2ccc(-c3c(Br)c(C(F)(F)F)nn3-c3c(Cl)cccc3Cl)s2)c1 [Example 1313, 4-bromo-1-(2,6-dichlorophenyl)-5-{5-[3-(methylsulfonyl)phenyl]-2-thienyl}-3-(trifluoromethyl)-1H-pyrazole]"
13,< 1,"CCC(O)(CC)c1cc(-c2ccc(-c3cccc(S(C)(=O)=O)c3)s2)n(-c2ccccc2Cl)n1 [Example 1174, 3-[1-(2-chlorophenyl)-5-{5-[3-(methylsulfonyl)phenyl]-2-thienyl}-1H-pyrazol-3-yl]pentan-3-ol]"
14,< 1,"CC(C)(O)c1nn(-c2ccccc2C(F)(F)F)c(-c2ccc(-c3cccc(S(C)(=O)=O)c3)s2)c1Br [Example 1349, 2-(4-bromo-5-{5-[3-(methylsulfonyl)phenyl]-2-thienyl}-1-[2-(trifluoromethyl)phenyl]-1H-pyrazol-3-yl)propan-2-ol]"
15,1 to 10,"CC(C)(O)c1cc(-c2ccc(-c3ccc4cc[nH]c4c3)cc2)n(-c2ccccc2Cl)n1 [Example 1282, 2-{1-(2-chlorophenyl)-5-[4-(1H-indol-6-yl)phenyl]-1H-pyrazol-3-yl}propan-2-ol]"
16,< 1,"CC(C)(O)c1cc(-c2ccccc2C(F)(F)F)n(-c2ccc(-c3cccc(S(C)(=O)=O)c3)cc2Cl)n1 [Example 140, 2-(1-(3-chloro-3′-(methylsulfonyl)biphenyl-4-yl)-5-(2-(trifluoromethyl)phenyl)-1H-pyrazol-3-yl)propan-2-ol]"

row,SMILES,EC50 [µM]
1,"CC(C)NC(=O)Oc1cccc(-c2ccc(-c3cc(C(C)(C)O)nn3-c3ccccc3Cl)cc2)c1 [Example 1296, 4′-[1-(2-chlorophenyl)-3-(1-hydroxy-1-methylethyl)-1H-pyrazol-5-yl]biphenyl-3-yl (1-methylethyl)carbamate]",1 to 10

# — patent US8703805B2 (Exelixis Patent Company LLC, priority 2005, dated 2014)
